Converted amounts (≈) assume the structure as drawn.
Experiments:
Assay in all cases: In vitro antibacterial evaluation: minimum inhibitory concentration (MIC), broth dilution method
Assay type in all cases: cell-based
[1] = tested on: Enterococcus sp.
Description: (§1) The minimum inhibitory concentration (MIC), the lowest concentration of the antibiotic which inhibits growth of the test organism, is determined by the broth dilution method using Muller-Hinton II […] (Baltimore Biological Laboratories) following the recommendations of the National Committee for Clinical Laboratory Standards [Methods for dilution antimicrobial susceptibility tests for bacteria that grow aerobically, approved standard M7-A2, National Committee for Clinical Laboratory Standards, Villanova, Pa].
(§2) An inoculum level of 5×10^5 CFU/mL, and a range of antibiotic concentrations (64-0.06 μg/mL) is used. […] The test organisms include a spectrum of Gram-positive bacteria comprised of Staphylococcus sp., Streptococcus sp. and Enterococcus sp. These organisms include recent clinical isolates that are resistant to methicillin, penicillin and/or vancomycin.

[2] = tested on: Escherichia coli
Description: as §1, §2

[3] = tested on: Staphylococcus sp.; conditions: broth dilution, 18 hours at 35° C.
Description: as §1, §2

[4] = tested on: Streptococcus sp.
Description: as §1, §2

MIC Enterococcus faecalis (ATCC 29212) ([1]; strain ATCC 29212): 32 µg/mL (≈ 22.2 µM)
MIC Enterococcus faecalis (GC 2242) ([1]; strain GC 2242): 16 µg/mL (≈ 11.1 µM)
MIC Enterococcus faecium (GC 2243) ([1]; strain GC 2243): 32 µg/mL (≈ 22.2 µM)
MIC Enterococcus faecalis (GC 2691) ([1]; strain GC 2691): 32 µg/mL (≈ 22.2 µM)
MIC Enterococcus faecalis (GC 3059) ([1]; strain GC 3059): 32 µg/mL (≈ 22.2 µM)
MIC Enterococcus faecalis (GC 4552) ([1]; strain GC 4552): 32 µg/mL (≈ 22.2 µM)
MIC Enterococcus faecalis (GC 4553) ([1]; strain GC 4553): 32 µg/mL (≈ 22.2 µM)
MIC Enterococcus faecalis (GC 4554) ([1]; strain GC 4554): 32 µg/mL (≈ 22.2 µM)
MIC Enterococcus faecium (GC 4556) ([1]; strain GC 4556): 32 µg/mL (≈ 22.2 µM)
MIC Enterococcus faecium (GC 4557) ([1]; strain GC 4557): 8 µg/mL (≈ 5.55 µM)
MIC Enterococcus avium (GC 4558) ([1]; strain GC 4558): 32 µg/mL (≈ 22.2 µM)
MIC Enterococcus faecalis (GC 6189) ([1]; strain GC 6189): 64 µg/mL (≈ 44.4 µM)
MIC Escherichia coli (ATCC 25922) ([2]; strain ATCC 25922): >64 µg/mL
MIC Escherichia coli (GC 4559) ([2]; strain GC 4559): >64 µg/mL
MIC Escherichi coli (GC 4560) ([2]; strain GC 4560): 2 µg/mL (≈ 1.39 µM)
MIC Coagulase Negative Staphylococcus (GC 4547) ([3]; 5×10^5 CFU/mL): 4 µg/mL (≈ 2.77 µM)
MIC Coagulase Negative Staphylococcus (GC 4548) ([3]; 5×10^5 CFU/mL): 4 µg/mL (≈ 2.77 µM)
MIC Coagulase Negative Staphylococcus (GC 4549) ([3]; 5×10^5 CFU/mL): 2 µg/mL (≈ 1.39 µM)
MIC Coagulase Negative Staphylococcus (GC 4551) ([3]; 5×10^5 CFU/mL): 8 µg/mL (≈ 5.55 µM)
MIC Coagulase Negative Staphylococcus (GC 6257) ([3]; 5×10^5 CFU/mL): 2 µg/mL (≈ 1.39 µM)
MIC Staphylococcus aureus (ATCC 29213) ([3]; 5×10^5 CFU/mL): 8 µg/mL (≈ 5.55 µM)
MIC Staphylococcus aureus (GC 1131) ([3]; 5×10^5 CFU/mL): 8 µg/mL (≈ 5.55 µM)
MIC Staphylococcus aureus (GC 3051) ([3]; 5×10^5 CFU/mL): 8 µg/mL (≈ 5.55 µM)
MIC Staphylococcus aureus (GC 3053) ([3]; 5×10^5 CFU/mL): 16 µg/mL (≈ 11.1 µM)
MIC Staphylococcus aureus (GC 4541) ([3]; 5×10^5 CFU/mL): 4 µg/mL (≈ 2.77 µM)
MIC Staphylococcus aureus (GC 4542) ([3]; 5×10^5 CFU/mL): 8 µg/mL (≈ 5.55 µM)
MIC Staphylococcus aureus (GC 4544) ([3]; 5×10^5 CFU/mL): 8 µg/mL (≈ 5.55 µM)
MIC Staphylococcus aureus (GC 4545) ([3]; 5×10^5 CFU/mL): 4 µg/mL (≈ 2.77 µM)
MIC Staphylococcus aureus-SMITH (GC 4543) ([3]; 5×10^5 CFU/mL): 8 µg/mL (≈ 5.55 µM)
MIC Staphylococcus aureus (ATCC 29213) ([3]; strain ATCC 29213): 8 µg/mL (≈ 5.55 µM)
MIC Staphylococcus aureus (GC 1131) ([3]; strain GC 1131): 8 µg/mL (≈ 5.55 µM)
MIC Staphylococcus aureus (GC 3051) ([3]; strain GC 3051): 8 µg/mL (≈ 5.55 µM)
MIC Staphylococcus aureus (GC 3053) ([3]; strain GC 3053): 16 µg/mL (≈ 11.1 µM)
MIC Staphylococcus aureus (GC 4541) ([3]; strain GC 4541): 4 µg/mL (≈ 2.77 µM)
MIC Staphylococcus aureus (GC 4542) ([3]; strain GC 4542): 8 µg/mL (≈ 5.55 µM)
MIC Staphylococcus aureus-SMITH (GC 4543) ([3]; strain GC 4543): 8 µg/mL (≈ 5.55 µM)
MIC Staphylococcus aureus (GC 4544) ([3]; strain GC 4544): 8 µg/mL (≈ 5.55 µM)
MIC Staphylococcus aureus (GC 4545) ([3]; strain GC 4545): 4 µg/mL (≈ 2.77 µM)
MIC Coagulase Negative Staphylococcus (GC 4547) ([3]; strain GC 4547): 4 µg/mL (≈ 2.77 µM)
MIC Coagulase Negative Staphylococcus (GC 4548) ([3]; strain GC 4548): 4 µg/mL (≈ 2.77 µM)
MIC Coagulase Negative Staphylococcus (GC 4549) ([3]; strain GC 4549): 2 µg/mL (≈ 1.39 µM)
MIC Coagulase Negative Staphylococcus (GC 4551) ([3]; strain GC 4551): 8 µg/mL (≈ 5.55 µM)
MIC Coagulase Negative Staphylococcus (GC 6257) ([3]; strain GC 6257): 2 µg/mL (≈ 1.39 µM)
MIC Streptococcus pneumoniae (ATCC 6301) ([4]; strain ATCC 6301): 1 µg/mL (≈ 0.693 µM)
MIC Streptococcus pneumoniae (GC 1894) ([4]; strain GC 1894): 0.5 µg/mL (≈ 0.347 µM)
MIC Streptococcus pyogenes (GC 4563) ([4]; strain GC 4563): 2 µg/mL (≈ 1.39 µM)
MIC Streptococcus agalactiae (GC 4564) ([4]; strain GC 4564): 4 µg/mL (≈ 2.77 µM)
MIC Streptococcus pneumoniae (GC 4565) ([4]; strain GC 4565): 1 µg/mL (≈ 0.693 µM)
Compound: Cc1cc(C2OCC3OC(OC4C(CO)OC(Oc5ccc(CC6NC(=O)C(C(C)c7ccccc7)NC(=O)CNC(=O)C(CO)NC(=O)C(C(O)C7CNC(=N)N7C7OC(CO)C(O)C(O)C7O)NC(=O)C(C(O)C7CNC(=N)N7)NC6=O)cc5)C(O)C4O)C(O)C(O)C3O2)ccc1[N+](=O)[O-] (stereo not drawn) [Example 151, Cyclo[glycyl-β-methylphenylalanyl-O-[4-O-[4,6-O-(3-methyl-4-nitrobenzylidene)hexonyranosyl]hexopyranosyl]tyrosyl-3-(2-iminoimidazolidin-4-yl)seryl-3-(3-hexopyranosyl-2-iminoimidazolidin-4-yl)serylseryl]]
MIC Staphylococcus haemolyticus (GC 4546) ([3]; 5×10^5 CFU/mL): 2 µg/mL (≈ 1.39 µM)
MIC Staphylococcus haemolyticus (GC 4546) ([3]; strain GC 4546): 2 µg/mL (≈ 1.39 µM)

From patent publication US8247211B2, “Glycopeptide antibiotics” (American Cyanamid Company, priority 2001, dated 2012)
